Our source for the IC50 and IC90 values is ChEMBL document CHEMBL4483862, “Open-source discovery of chemical leads for next-generation chemoprotective antimalarials” (2018).

The subject of this experiment is Plasmodium berghei. Nature of the experiment: Luciferase/luciferin-expressing antifolate-resistant parasites were used to infect a culture of HepG2 cells that were pre-incubated with compounds. Infected hepatocytes emit light due to the luciferase reaction. Assay results are presented as the percent inhibition of light emission compared to control. […]. It is filed as functional. Conditions: sporozoite; for IC90: read-out: LUCIFERASE INFECTION ASSAY - IC90.

The mark [1] stands for this setting: read-out: LUCIFERASE INFECTION ASSAY - IC50.

Each structure is given as a SMILES string. pIC50: −log10 of the molar value.

`Clc1ccc(Cl)c(-c2ccc(CNCCN3CCNCC3)o2)c1`: the IC90 is 7.07 µM. For the same compound, the pIC50 (HEPG2TOX_HILL_SLOPE 36.7, HEPG2TOX_R_SQUARED 0.263, PBLUC_HILL_SLOPE 4.39, PBLUC_R_SQUARED 0.663, read-out: LUCIFERASE INFECTION ASSAY - IC50) is 5.37.

In the case of `CC(=O)c1cccc(-c2cnc3ccc(-c4cccc(Oc5ccccc5)c4)nn23)c1`, the IC90 was above 10 µM. Where the note is “HEPG2TOX_HILL_SLOPE 0.164, HEPG2TOX_R_SQUARED 0.772, PBLUC_HILL_SLOPE 1.12, PBLUC_R_SQUARED 0.566, read-out: LUCIFERASE INFECTION ASSAY - IC50”, the pIC50 is 5.72.

For the compound `c1ccc(-c2cc(-c3ccc(NC4=NCCCS4)cc3)nc3ccccc23)cc1`, the IC90 was 9.46 µM. Also, the pIC50 (PBLUC_HILL_SLOPE 28.5, PBLUC_R_SQUARED 0.262, read-out: LUCIFERASE INFECTION ASSAY - IC50) was 5.06.

Take `CS(=O)(=O)N1CCCc2cc(C(=O)Nc3[nH]nc4ccccc34)ccc21`: the IC90 was above 10 µM. For the same compound, the pIC50 (PBLUC_HILL_SLOPE 1.05, PBLUC_R_SQUARED 0.487, read-out: LUCIFERASE INFECTION ASSAY - IC50) is 5.38.

Turning to `O=C(Cn1cnc2sccc2c1=O)Nc1nc(-c2ccccn2)cs1`, the IC90 is above 10 µM. In addition, the pIC50 (HEPG2TOX_HILL_SLOPE 0.285, HEPG2TOX_R_SQUARED 0.277, PBLUC_HILL_SLOPE 15.4, PBLUC_R_SQUARED 0.28, read-out: LUCIFERASE INFECTION ASSAY - IC50) was 5.03.

`CN(CC(=O)Nc1ccc(Cl)c(C(F)(F)F)c1)CC(=O)Nc1ccc(Cl)cn1`: the IC90 is above 10 µM. Under setting [1], the pIC50 was below 5.00.

For `COc1ccc(C(=O)OCC(=O)Nc2sccc2C(N)=O)cc1S(=O)(=O)N1CCCCC1C` (configuration not stated), the IC90 was above 10 µM. Moreover, for the setting “HEPG2TOX_HILL_SLOPE 5.31, HEPG2TOX_R_SQUARED 0.826, PBLUC_HILL_SLOPE 1.98, PBLUC_R_SQUARED 0.24, read-out: LUCIFERASE INFECTION ASSAY - IC50”, the pIC50 is 5.29.

For `Cc1cc(C(=O)Nc2nc3ccccc3s2)c(C)n1C(C)C`, the IC90 was determined as 0.946 µM. Also, the pIC50 under setting [1] is 6.92.

For `CCOC(=O)c1sc(SC)c2c1CCc1c[nH]nc1-2`, the IC90 is above 11.2 µM. Further, the pIC50 (FFLUC_HILL_SLOPE 10.3, FFLUC_R_SQUARED 0.371, read-out: LUCIFERASE INFECTION ASSAY - IC50) is below 4.95.

On to `N=C1c2ccccc2CN1NC(=O)CCCOc1ccc(Cl)cc1Cl`, for which the IC90 is 7.29 µM. For the same compound, the pIC50 (PBLUC_HILL_SLOPE 1.16, PBLUC_R_SQUARED 0.64, read-out: LUCIFERASE INFECTION ASSAY - IC50) was 5.96.

Take `O=C(Nc1nc(-c2c[nH]c3ccccc23)cs1)c1cc(=O)[nH]c2ccccc12`: the IC90 was above 10 µM. Where the note is “PBLUC_HILL_SLOPE 7.71, PBLUC_R_SQUARED 0.559, read-out: LUCIFERASE INFECTION ASSAY - IC50”, the pIC50 is 5.03.

With `Cc1ccccc1-c1cnc2cnc(-c3ccc(N4CCN(C)CC4)nc3)cn12`, the IC90 was above 8.58 µM. Further, under “PBLUC_HILL_SLOPE 2.3, PBLUC_R_SQUARED 0.345, read-out: LUCIFERASE INFECTION ASSAY - IC50”, the pIC50 was below 5.07.

With `Cc1ccc(N2C(=O)/C(=C/c3ccc(C(C)C)cc3)N=C2SCc2cccc(S(=O)(=O)N(C)C)c2)cc1`, the IC90 is above 10 µM. The pIC50 (FFLUC_HILL_SLOPE 2.29, FFLUC_R_SQUARED 0.777, PBLUC_HILL_SLOPE 2.35, PBLUC_R_SQUARED 0.372, read-out: LUCIFERASE INFECTION ASSAY - IC50) is 5.16.

On to `Cc1csc(NC(=O)Nc2ccc(C(F)(F)F)cc2)c1Cl`, for which the IC90 was found to be 4.43 µM. For the setting “HEPG2TOX_HILL_SLOPE 12, HEPG2TOX_R_SQUARED 0.807, PBLUC_HILL_SLOPE 11.1, PBLUC_R_SQUARED 0.14, read-out: LUCIFERASE INFECTION ASSAY - IC50”, the pIC50 was 5.44.

In the case of `Cc1cc(C(=O)N/N=C2\C(=O)Nc3ccccc32)c(C)n1-c1ccc(F)cc1`, the 90% effect concentration (IC90) is above 10 µM. Further, for the setting “PBLUC_HILL_SLOPE 1.9, PBLUC_R_SQUARED 0.511, read-out: LUCIFERASE INFECTION ASSAY - IC50”, the pIC50 was 5.40.

Regarding `COc1ccc(NC(=O)c2nnc(CSc3nc(C)cc(-c4ccccc4)n3)s2)cc1`, the IC90 is 0.616 µM. For the same compound, the pIC50 (HEPG2TOX_HILL_SLOPE 2.12, HEPG2TOX_R_SQUARED 0.961, PBLUC_HILL_SLOPE 18.1, PBLUC_R_SQUARED 0.668, read-out: LUCIFERASE INFECTION ASSAY - IC50) was 6.26.

On to `COc1cc(C(=O)N/N=C2\C(=O)Nc3ccc(C(C)C)cc32)cc(OC)c1OC`, for which the IC90 was above 10 µM. For the setting “FFLUC_HILL_SLOPE 15.7, FFLUC_R_SQUARED 0.417, HEPG2TOX_HILL_SLOPE 3.31, HEPG2TOX_R_SQUARED 0.963, PBLUC_HILL_SLOPE 2.41, PBLUC_R_SQUARED 0.374, read-out: LUCIFERASE INFECTION ASSAY - IC50”, the pIC50 is 5.31.

With `CC1CCN(Cc2c(-c3ccccc3)n(C)c3ccccc23)CC1`, the IC90 was above 10 µM. Under setting [1], the pIC50 is below 5.00.

For the compound `Cn1cc(Br)cc1C(=O)Nc1ccc2c(c1)OCCO2`, the IC90 was above 10 µM. Moreover, under setting [1], the pIC50 was below 5.00.

Turning to `Cc1ccc(SCc2cc(=O)n3nc(C)c(-c4ccccc4)c3[nH]2)cc1`, the IC90 is above 9.13 µM. Also, the pIC50 (PBLUC_HILL_SLOPE 11, PBLUC_R_SQUARED 0.259, read-out: LUCIFERASE INFECTION ASSAY - IC50) is 5.12.

`CCN(CC)S(=O)(=O)c1ccc(N/N=C/c2c(-c3ccccc3)[nH]c3ccccc23)nc1`: the IC90 is above 10 µM. For the same compound, under “PBLUC_HILL_SLOPE 2.64, PBLUC_R_SQUARED 0.392, read-out: LUCIFERASE INFECTION ASSAY - IC50”, the pIC50 is 5.35.

For the compound `Clc1ccc2c(N(Cc3ccco3)Cc3cccs3)ncnc2c1`, the IC90 is above 10 µM. Moreover, under setting [1], the pIC50 is below 5.00.

For the compound `Cc1ccc(CNC(=O)c2ccc(CN3CCc4ccccc4C3)cc2)cc1`, the IC90 was above 8.91 µM. Further, the pIC50 (PBLUC_HILL_SLOPE 3.55, PBLUC_R_SQUARED 0.838, read-out: LUCIFERASE INFECTION ASSAY - IC50) was 5.22.

For `CCOc1cc2c(cc1NC(=O)CCCCCn1c(=S)[nH]c3ccccc3c1=O)OC(C)C2` (configuration not stated), the concentration for an effect of 90% (IC90) is above 10 µM. Under setting [1], the pIC50 was below 5.00.

Turning to `CC(C)(c1ccc(Oc2ccc(NC(=O)C3CC3(C)C)cc2)cc1)c1ccc(Oc2ccc(NC(=O)C3CC3(C)C)cc2)cc1` (configuration not stated), the IC90 is above 5.47 µM. Also, the pIC50 (FFLUC_HILL_SLOPE 0.986, FFLUC_R_SQUARED 0.483, PBLUC_HILL_SLOPE 0.525, PBLUC_R_SQUARED 0.295, read-out: LUCIFERASE INFECTION ASSAY - IC50) is 5.63.

For `COCCCNC(=S)N/N=C/c1ccc(Cl)c(Cl)c1`, the IC90 was above 10.3 µM. Moreover, the pIC50 under setting [1] is below 4.99.

Turning to `Cc1nc(Cc2nc(-c3ccc(S(C)(=O)=O)cc3)cs2)cs1`, the IC90 is above 10 µM. The pIC50 under setting [1] is below 5.00.

For the compound `Cc1ccc(N(CC(=O)Nc2ccc(F)cc2F)C2=NC(=O)CS2)cc1`, the IC90 turned out to be 9.47 µM. Also, the pIC50 (PBLUC_HILL_SLOPE 3.93, PBLUC_R_SQUARED 0.513, read-out: LUCIFERASE INFECTION ASSAY - IC50) was 5.27.

As to `COc1ccc(OC)c(CCNc2nc3cnc(-c4ccc(Cl)cc4)cc3n2C)c1`, the IC90 amounted to 3.74 µM. Moreover, the pIC50 (HEPG2TOX_HILL_SLOPE 1.93, HEPG2TOX_R_SQUARED 0.878, PBLUC_HILL_SLOPE 2.27, PBLUC_R_SQUARED 0.668, read-out: LUCIFERASE INFECTION ASSAY - IC50) was 5.85.

Consider `CCCCNC(=O)c1c(NC(=O)c2cc(F)cc(F)c2)nc2ccccn12`, for which the IC90 came out at 1.17 µM. Also, the pIC50 (FFLUC_HILL_SLOPE 9.87, FFLUC_R_SQUARED 0.392, HEPG2TOX_HILL_SLOPE 0.611, HEPG2TOX_R_SQUARED 0.894, PBLUC_HILL_SLOPE 4.02, PBLUC_R_SQUARED 0.616, read-out: LUCIFERASE INFECTION ASSAY - IC50) is 6.17.

In the case of `O=C(CSc1nc2sc3c(c2c(=O)n1-c1cccc(C(F)(F)F)c1)CCCC3)NC12CC3CC(CC(C3)C1)C2`, the IC90 is 7.89 µM. Further, for the setting “PBLUC_HILL_SLOPE 5.84, PBLUC_R_SQUARED 0.777, read-out: LUCIFERASE INFECTION ASSAY - IC50”, the pIC50 is 5.27.

Consider `COc1cc(CNCCCN(C)C)cc(Cl)c1OCc1ccc(F)cc1`, for which the IC90 was above 8.66 µM. Also, the pIC50 (HEPG2TOX_HILL_SLOPE 10.1, HEPG2TOX_R_SQUARED 0.531, PBLUC_HILL_SLOPE 2.5, PBLUC_R_SQUARED 0.598, read-out: LUCIFERASE INFECTION ASSAY - IC50) is 5.29.

In the case of `N#Cc1ccccc1COc1ccccc1-c1ccccc1`, the IC90 is above 10 µM. For the same compound, the pIC50 (PBLUC_HILL_SLOPE 3.31, PBLUC_R_SQUARED 0.0977, read-out: LUCIFERASE INFECTION ASSAY - IC50) was 5.10.

Turning to `COc1ccc(/C=C/C(=O)c2cc(F)c(Cl)cc2Cl)c(OC)c1OC`, the IC90 is above 10 µM. For the same compound, under setting [1], the negative-log IC50 (pIC50) was 5.01.

With `N=C(N)NN=C1CCCCCCCCCCC1`, the IC90 was above 12 µM. Besides, the pIC50 (HEPG2TOX_HILL_SLOPE 5.24, 2.64, HEPG2TOX_R_SQUARED 0.916, 0.913, PBLUC_HILL_SLOPE 15.5, 3.20, PBLUC_R_SQUARED 0.175, 0.492, read-out: LUCIFERASE INFECTION ASSAY - IC50) was 4.93.

Regarding `N#CCCn1cc(/C=C(\C#N)c2nc3ccccc3[nH]2)c(-c2ccccc2)n1`, the IC90 is above 10 µM. The pIC50 under setting [1] is below 5.00.
